{
  "source": "patent US10517889B2",
  "about": "“Modulators of SMAD7 expression” (Ionis Pharmaceuticals, Inc., priority 2017, dated 2019)",
  "note": "Strand notation (5' to 3'): a small letter for the sugar, then the base; units joined by * are phosphorothioate-linked, units joined directly phosphodiester-linked; [ ] holds rarer units or linkages, { } end groups; capitals alone tell only the bases. k = constrained ethyl (cEt); [5mC] = 5-methylcytosine; d = 2'-deoxy (DNA)",
  "data": [
    {"system": "human SMAD7 mRNA", "experiment": "Antisense inhibition of human SMAD7 mRNA expression in Hep3B cells by 3-10-3 cEt gapmers, 10,000 nM, electroporation (Example 2)", "format": "cell-based", "conditions": "Hep3B cells, 10,000 nM antisense oligonucleotide, electroporation, approximately 24 hours, RT-PCR primer probe set RTS5062, relative to untreated control cells", "procedure,_shortened": "(§1)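 Hep3B cells (20,000 per well) were electroporated with 10,000 nM 16-mer 3-10-3 cEt gapmer (phosphorothioate, 5-methylcytosine). After about 24 h, SMAD7 mRNA was quantified by qRT-PCR with primer probe set RTS5062, normalised to RIBOGREEN total RNA, and expressed as percent inhibition versus untreated cells.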", "units": {"% Inhibition": "%"}, "values": [
      {"substance": "799977 (kG*kG*kA*d[5mC]*dA*dT*d[5mC]*dT*d[5mC]*dA*dA*dA*dG*kG*kT*kT; antisense) [compound 799977]", "% Inhibition": 36},
      {"substance": "799978 (k[5mC]*kT*k[5mC]*d[5mC]*dA*d[5mC]*dA*dA*d[5mC]*dG*dG*dA*d[5mC]*kA*kT*k[5mC]; antisense) [compound 799978]", "% Inhibition": 24},
      {"substance": "799979 (kA*kA*k[5mC]*dG*dG*dT*dT*dG*d[5mC]*d[5mC]*dT*d[5mC]*dA*kT*k[5mC]*k[5mC]; antisense) [compound 799979]", "% Inhibition": 38},
      {"substance": "799990 (kT*kT*kG*d[5mC]*dA*d[5mC]*d[5mC]*dT*dG*dG*d[5mC]*dA*dA*k[5mC]*k[5mC]*kT; antisense) [compound 799990]", "% Inhibition": 0},
      {"substance": "799991 (kG*kG*k[5mC]*d[5mC]*dG*d[5mC]*d[5mC]*dT*d[5mC]*d[5mC]*dT*dG*d[5mC]*kA*kG*kG; antisense) [compound 799991]", "% Inhibition": 19},
      {"substance": "799992 (kG*kG*k[5mC]*dA*d[5mC]*dG*dG*d[5mC]*d[5mC]*dG*d[5mC]*d[5mC]*dT*k[5mC]*k[5mC]*kT; antisense) [compound 799992]", "% Inhibition": 9},
      {"substance": "799993 (kA*kT*kA*dA*dT*dG*dA*dA*dG*dT*dG*dA*dT*kA*kT*kT; antisense) [compound 799993]", "% Inhibition": 0},
      {"substance": "799994 (kA*k[5mC]*kT*dT*dG*dG*dA*dT*dA*dA*dT*dG*dA*kA*kG*kT; antisense) [compound 799994]", "% Inhibition": 2},
      {"substance": "799995 (k[5mC]*kT*kG*dT*dG*dA*dG*dG*d[5mC]*dA*d[5mC]*dT*dT*kG*kG*kA; antisense) [compound 799995]", "% Inhibition": 63},
      {"substance": "799996 (kG*kA*k[5mC]*d[5mC]*d[5mC]*dA*d[5mC]*dG*dG*dT*dT*dA*dA*kA*kT*kG; antisense) [compound 799996]", "% Inhibition": 36},
      {"substance": "799997 (kA*kT*kG*dA*d[5mC]*d[5mC]*d[5mC]*dA*d[5mC]*dG*dG*dT*dT*kA*kA*kA; antisense) [compound 799997]", "% Inhibition": 14},
      {"substance": "799998 (k[5mC]*kA*kG*dT*dA*dA*dA*dG*dA*d[5mC]*dA*dT*dG*kA*kG*k[5mC]; antisense) [compound 799998]", "% Inhibition": 45},
      {"substance": "799999 (kT*kT*kA*dG*dG*dA*dA*d[5mC]*dA*dA*dG*dG*dG*k[5mC]*kA*kA; antisense) [compound 799999]", "% Inhibition": 23},
      {"substance": "800011 (k[5mC]*kT*kT*d[5mC]*dA*dG*d[5mC]*d[5mC]*dT*dG*dT*dG*dT*kT*kT*kG; antisense) [compound 800011]", "% Inhibition": 21},
      {"substance": "800012 (kG*kA*kG*dG*dA*d[5mC]*dT*dT*d[5mC]*dA*dG*d[5mC]*d[5mC]*kT*kG*kT; antisense) [compound 800012]", "% Inhibition": 49},
      {"substance": "800013 (kA*kA*kA*dG*dG*dA*dG*dA*dG*dG*dA*d[5mC]*dT*kT*k[5mC]*kA; antisense) [compound 800013]", "% Inhibition": 56},
      {"substance": "800014 (kT*kA*kA*dA*dG*d[5mC]*dA*dT*dA*dA*dA*dA*dT*k[5mC]*k[5mC]*kT; antisense) [compound 800014]", "% Inhibition": 21},
      {"substance": "800015 (k[5mC]*kT*kT*dT*dA*dA*dG*dG*dT*dG*dT*dT*dG*k[5mC]*k[5mC]*k[5mC]; antisense) [compound 800015]", "% Inhibition": 26},
      {"substance": "800016 (kG*kT*kT*d[5mC]*dA*dT*dT*dT*dT*dA*dA*dA*dG*k[5mC]*kA*kT; antisense) [compound 800016]", "% Inhibition": 32},
      {"substance": "800017 (kT*kA*kA*dA*dA*d[5mC]*dA*dG*dT*dA*dT*dG*dT*kG*kT*kT; antisense) [compound 800017]", "% Inhibition": 11},
      {"substance": "800018 (kA*kA*kA*dA*d[5mC]*dT*d[5mC]*dA*d[5mC]*dA*dG*dT*d[5mC]*k[5mC]*kT*kT; antisense) [compound 800018]", "% Inhibition": 51}
    ]},
    {"system": "human SMAD7 mRNA", "experiment": "Antisense inhibition of human SMAD7 mRNA expression in Hep3B cells by 3-10-3 cEt gapmers, 10,000 nM, electroporation (Example 2)", "format": "cell-based", "conditions": "Hep3B cells, electroporation with 10,000 nM antisense oligonucleotide, approximately 24 hours, SMAD7 mRNA by RT-PCR (RTS5062), relative to untreated control cells", "procedure,_shortened": "as §1", "units": {"% Inhibition": "%"}, "values": [
      {"substance": "799981 (kA*k[5mC]*k[5mC]*dA*dA*d[5mC]*dG*dG*dT*dT*dG*d[5mC]*d[5mC]*kT*k[5mC]*kA; antisense) [compound 799981]", "% Inhibition": 14},
      {"substance": "799982 (k[5mC]*kA*k[5mC]*d[5mC]*dA*d[5mC]*dG*d[5mC]*d[5mC]*dT*d[5mC]*dG*d[5mC]*kT*kA*kA; antisense) [compound 799982]", "% Inhibition": 0},
      {"substance": "799983 (k[5mC]*kA*kT*d[5mC]*dA*d[5mC]*d[5mC]*dA*d[5mC]*dG*d[5mC]*d[5mC]*dT*k[5mC]*kG*k[5mC]; antisense) [compound 799983]", "% Inhibition": 15},
      {"substance": "799984 (kA*k[5mC]*kA*dT*d[5mC]*dA*d[5mC]*d[5mC]*dA*d[5mC]*dG*d[5mC]*d[5mC]*kT*k[5mC]*kG; antisense) [compound 799984]", "% Inhibition": 61},
      {"substance": "799985 (kA*kA*k[5mC]*dA*dT*d[5mC]*dA*d[5mC]*d[5mC]*dA*d[5mC]*dG*d[5mC]*k[5mC]*kT*k[5mC]; antisense) [compound 799985]", "% Inhibition": 53},
      {"substance": "799986 (kA*kA*kA*d[5mC]*dA*dT*d[5mC]*dA*d[5mC]*d[5mC]*dA*d[5mC]*dG*k[5mC]*k[5mC]*kT; antisense) [compound 799986]", "% Inhibition": 44},
      {"substance": "799987 (k[5mC]*kA*kA*dA*d[5mC]*dA*dT*d[5mC]*dA*d[5mC]*d[5mC]*dA*d[5mC]*kG*k[5mC]*k[5mC]; antisense) [compound 799987]", "% Inhibition": 57},
      {"substance": "799988 (kG*k[5mC]*kG*d[5mC]*dA*dA*dA*d[5mC]*dA*dT*d[5mC]*dA*d[5mC]*k[5mC]*kA*k[5mC]; antisense) [compound 799988]", "% Inhibition": 32},
      {"substance": "799989 (kT*kG*k[5mC]*dA*d[5mC]*d[5mC]*dT*dG*dG*d[5mC]*dA*dA*d[5mC]*k[5mC]*kT*kG; antisense) [compound 799989]", "% Inhibition": 57},
      {"substance": "800000 (k[5mC]*kA*kT*dT*dT*dA*dG*dG*dA*dA*d[5mC]*dA*dA*kG*kG*kG; antisense) [compound 800000]", "% Inhibition": 37},
      {"substance": "800001 (k[5mC]*kA*kA*dG*dA*dT*dT*d[5mC]*d[5mC]*dA*dT*dT*dT*kA*kG*kG; antisense) [compound 800001]", "% Inhibition": 2},
      {"substance": "800002 (k[5mC]*k[5mC]*k[5mC]*d[5mC]*dA*dA*dG*dA*dT*dT*d[5mC]*d[5mC]*dA*kT*kT*kT; antisense) [compound 800002]", "% Inhibition": 0},
      {"substance": "800003 (kA*kG*kA*dA*d[5mC]*dA*d[5mC]*dG*dG*dG*d[5mC]*dA*d[5mC]*kG*k[5mC]*kG; antisense) [compound 800003]", "% Inhibition": 24},
      {"substance": "800004 (kT*kT*kT*dT*dA*dA*dT*dT*dT*dG*dA*dA*dG*kG*k[5mC]*kG; antisense) [compound 800004]", "% Inhibition": 8},
      {"substance": "800005 (k[5mC]*k[5mC]*kG*d[5mC]*dA*d[5mC]*d[5mC]*d[5mC]*dA*dG*dA*d[5mC]*d[5mC]*k[5mC]*k[5mC]*kT; antisense) [compound 800005]", "% Inhibition": 27},
      {"substance": "800006 (k[5mC]*kA*kA*dG*dG*dA*dA*dT*dT*dT*dT*d[5mC]*d[5mC]*k[5mC]*k[5mC]*kT; antisense) [compound 800006]", "% Inhibition": 41},
      {"substance": "800007 (k[5mC]*kT*k[5mC]*dA*dA*dG*dG*d[5mC]*d[5mC]*dA*d[5mC]*dA*dT*kT*kT*kT; antisense) [compound 800007]", "% Inhibition": 23},
      {"substance": "800008 (kG*kA*kA*d[5mC]*dA*dG*dA*d[5mC]*d[5mC]*dA*dG*dA*d[5mC]*k[5mC]*k[5mC]*kT; antisense) [compound 800008]", "% Inhibition": 40},
      {"substance": "800009 (kT*kG*k[5mC]*dT*d[5mC]*dA*dT*dG*dA*dA*dT*dG*dA*kA*k[5mC]*kA; antisense) [compound 800009]", "% Inhibition": 51},
      {"substance": "800019 (kG*kG*k[5mC]*dA*dA*dA*dA*d[5mC]*dT*d[5mC]*dA*d[5mC]*dA*kG*kT*k[5mC]; antisense) [compound 800019]", "% Inhibition": 61},
      {"substance": "800020 (kA*kA*k[5mC]*d[5mC]*dT*d[5mC]*dT*dG*dA*dA*dG*dG*d[5mC]*kA*kA*kA; antisense) [compound 800020]", "% Inhibition": 21},
      {"substance": "800021 (kG*kG*k[5mC]*d[5mC]*dT*d[5mC]*dT*d[5mC]*dG*d[5mC]*dT*dG*dA*kT*kA*kG; antisense) [compound 800021]", "% Inhibition": 0},
      {"substance": "800022 (kG*kG*kA*dA*dG*dA*dG*d[5mC]*d[5mC]*dT*dT*dG*dG*k[5mC]*k[5mC]*kT; antisense) [compound 800022]", "% Inhibition": 30},
      {"substance": "800023 (kA*kG*kG*dA*dA*dG*dA*dG*d[5mC]*d[5mC]*dT*dT*dG*kG*k[5mC]*k[5mC]; antisense) [compound 800023]", "% Inhibition": 0},
      {"substance": "800024 (k[5mC]*kA*kA*dG*dG*dA*d[5mC]*dT*dA*dA*dG*dG*dA*kA*kG*kA; antisense) [compound 800024]", "% Inhibition": 18},
      {"substance": "800026 (kT*k[5mC]*kA*dG*dT*dA*d[5mC]*dA*dA*dG*dG*dA*d[5mC]*kT*kA*kA; antisense) [compound 800026]", "% Inhibition": 50},
      {"substance": "800027 (k[5mC]*kG*k[5mC]*dT*dT*dT*dG*d[5mC]*dT*d[5mC]*d[5mC]*d[5mC]*dA*kG*kG*kG; antisense) [compound 800027]", "% Inhibition": 0},
      {"substance": "800028 (k[5mC]*kA*k[5mC]*dA*dG*d[5mC]*d[5mC]*d[5mC]*dA*d[5mC]*dA*d[5mC]*dG*kA*kG*kT; antisense) [compound 800028]", "% Inhibition": 10}
    ]}
  ]
}
